Patent US4076705A, “Dipeptide derivatives and their production” (Shionogi & Co., Ltd., priority 1974, dated 1978)

Experiments:
Type in all cases: in vivo
DS male mice [1] = experiment: Anti-pentylenetetrazol activity; conditions: for Anti-pentylenetetrazol activity, ED50: oral, 60 minutes prior to 125 mg/kg s.c. pentylenetetrazol, complete protection against mortality, observed two hours; for times more potent than diazepam, anti-pentylenetetrazol activity: versus diazepam (Compound No. 5)
Description: 1. Anti-pentylenetetrazol activity
The convulsions were disregarded.

DS male mice [2] = experiment: Taming activity; conditions: for Taming activity ED50: given 60 minutes prior, inhibition of fighting responses to 5 Hz square wave pulse, 5 pairs; for times more potent than diazepam, taming activity: versus diazepam (Compound No. 5)
Method: This test was measured on DS male mice. […] These pairs of mice were selected in the morning and used for drug test in the afternoon. The test compound was administered to both mice of the pairs 60 minutes prior to the experiment. Results were obtained as the mean percentage of inhibition of fighting responses in a group of 5 pairs and shown by ED50 [Tedeschi, et al.: J. Pharmacol Exp. Thev., 125, 28-34 (1959) ].

DS male mice [3] = experiment: Rotarod performance activity; conditions: fall from rod (five rotations per minute) within less than 2 minutes
Method: 3. Rotarod performance activity
This test was measured on DS male mice. The mouse was put on a scraped rod of wood, 3 cm in diameter, turning at the rate of five rotations per minute. The mice that could remain on the rod for three or more minutes in successive trials were selected and placed in a group of 10 mice for each dose. If the mouse fell down from the rod within less than 2 minutes, the test compound was considered to be effective. Results were shown by ED50 [Dunham, et al.: J. Am. Pharm. Assoc., 46, 208 (1959)].

[4] = versus chlordiazepoxide (Compound No. 4)

Compound	Anti-pentylenetetrazol activity, ED50 (DS male mice [1]) [mg/kg]	times more potent than chlordiazepoxide, anti-pentylenetetrazol activity (DS male mice [1]; [4]) [times]	times more potent than chlordiazepoxide, taming activity (DS male mice [2]; [4]) [times]	times more potent than diazepam, anti-pentylenetetrazol activity (DS male mice [1]) [times]	Taming activity ED50 (DS male mice [2]) [mg/kg]	times more potent than diazepam, taming activity (DS male mice [2]) [times]	Rotarod performance ED50 (DS male mice [3]) [mg/kg]
CN(C(=O)CNC(=O)CN)c1ccc(Cl)cc1C(=O)c1ccccc1 [Compound No. 1, 2-benzoyl-4-chloro-N-methyl-N^α -glycyl-glycinanilide]	1.0	2 to 3	2 to 3				
CN(C(=O)CNC(=O)CN)c1ccc(Cl)cc1C(=O)c1ccccc1Cl.O [Compound No. 2, 2-o-chlorobenzoyl-4-chloro-N-methyl-N^α -glycyl-glycinanilide hydrate]	0.58			2 to 4	3.0	2 to 4	
CN(C(=O)CNC(=O)CN)c1ccc(Cl)cc1C(=O)c1ccccc1F.Cl [Compound No. 3, 2-o-fluorobenzoyl-4-chloro-N-methyl-N^α -glycyl-glycinanilide hydrochloride]	0.33			2 to 4	1.6	2 to 4	17.0
CNC1=Nc2ccc(Cl)cc2C(c2ccccc2)=[N+]([O-])C1 [Compound No. 4, Chlordiazepoxide, reference compound]							50.0
